“And” between values parts separate entries of the source, which are not always exact repeats. Equal entries are not always repeated.
Experiments:
[1] = test system: skin (buttocks) of three volunteers, epidermis; assay: Penetration depth into the skin (color reaction on biopsy slices); type: in vivo; conditions: human
From the text: The essential condition is the existence of a specific detection method, which can be used to visualize the presence of particular sunscreen component. In case of quercetin one can take advantage of the existence of ortho dihydroxybenzene (catechol) configuration on the benzene ring B. Different colorimetric methods for catechols have been described. We choose the reaction described in J. Invest Dermatol., 70:197, 1978, (S. Pavel et al.).
Skin penetration study were executed using the following preparations:
1. Quercetin (1%) in cremor cetomacrogolis FNA (CMC)
2. Querceti-gelatin (small molecular weight fraction) (10-20%) in CMC.
3. Quercetin-gelatin (large molecular weight fraction) (10-20%) in CMC.
4. Catechol (1%) (as a penetration marker) in CMC.
The preparations were applied to the skin (buttocks) of three volunteers. The penetration times were 30 min, 1 hour and 3 hours. After each penetration time a biopsy (4 mm) was taken after local anesthesia. The biopsy material was frozen in liquid nitrogen and kept for the further analysis.
The biopsy material were cut in consecutive slices of 8 um thick The slices were incubated in a selected solution to achieve the color characteristic of catecholic structures. The depth of penetration was measured visually and expressed as a percentage penetrated epidermis, as follows: […]

[2] = Chelating capacity: free Fe3+ by ion chromatography; type: physicochemical; conditions: test samples b: Fe2(SO4)3 instead of FeSO4, mixed 1:1 with test solution, 10 minutes at 37° C.; iron alone 0.50
From the text: (§1) The amount of free Fe^2+ and Fe^3+ can be determined by ion-chromatography.
(§2) Gelatin has a very high affinity to Dionex column material that is used in the determination of iron ions. Gelatin will not elute from the column and thereby changes the characteristics of the column so that the separation is not stable. To prevent this a solid state extraction (SPE) column is used to separate the metal ions from the gelatin matrix. After this pretreatment the sample is conservated with 10 millimolar hydrochloric acid. The sample is then injected into the ion-chromatograph. The metal-ions form a complex with the pyridine-2,6-dicarboxylic acid (PDCA). The complexed iron ions are then separated by their differences in affinity to the column material, which has as well anion as cation characteristics (mixed mode). […] The signals obtained at the retention times known for Fe^2+ and Fe^3+ are proportional to the concentrations, which are calculated from a calibration curve.
(§3) A Dionex OnGuard-RP P/N 039595 column was conditioned with 5 ml methanol and 10 ml de-ionized water. […] 5 ml of the eluate is quantitatively pipetted into a 10 ml volumetric flask and 20 mM hydrochloric acid was added up to 10.00 ml. […]
(§4) In the same way, test samples 1b, 2b, 3b and 4b were prepared with Fe2(SO4)3 instead of FeSO4. […] The amounts of free Fe^2+ or Fe^3+ were determined by the method described above.

[3] = Chelating capacity: free Fe2+ by ion chromatography; type: physicochemical; conditions: test samples a: 1 millimol/l FeSO4 solution mixed 1:1 with test solution, ethanol:water 1:3, 10 minutes at 37° C.; iron alone 0.50
From the text: as §1, §2, §3, §4

[4] = test system: skin of volunteer subjects (skin types III or IV), UV-A radiation; assay: UV-A protection test on volunteer subjects (MPD, SPF); type: in vivo, human; conditions: one value per volunteer
Description: The test is performed on volunteer subjects with normal skin types III (Burns moderately, tans gradually) or IV (Burns minimally; tans well). The subjects have no history of photo-sensitivity, are not using systematic medications and have not been exposed to direct sunlight for the previous 6 weeks.
Two test sites of 5×10 cm, each test site divided in 6 sub-sites, are marked on the back of the subjects between the waist line and the shoulder blades. One test site is not treated and therefor unprotected. On the other test site 100 mg sunscreen product is applied uniformly to the skin so that the amount of the UV-absorbing compound applied is about 2 mg per m2. In case of the quercetin-gelatin compound the amount applied is such that also in this case 2 mg/m2 of the linked quercetin is applied, The applied sunscreen is allowed to dry for about 15 minutes.
A series of six doses of UV-A radiation, increasing in energy is applied to each test site using a UV-A Sellas Sun 2000 (irradiance about 50 milliWatt/cm^2 at 30 cm). […]
The MPD (minimal pigmenting dose) of each test site is determined visually after 3 hours of exposure. The MPD is defined as the quantity of radiation energy required to produce the first unambiguous pigmented reaction.
The SPF (Sun protection factor) is calculated as the quotient of […].

Row | Compound | Penetration depth, percentage penetrated epidermis ([1]; 30 min) | Penetration depth, percentage penetrated epidermis ([1]; 1 h) | Penetration depth, percentage penetrated epidermis ([1]; 3 h) | Amount of free Fe^3 [2] | Amount of free Fe^2+ [3] | MPD (minimal pigmenting dose), protected ([4]; protected test site, about 2 mg per m2 UV-absorbing compound (linked quercetin) applied, UV-A doses 33 to 8 joule/cm^2, determined visually after 3 hours) | SPF (Sun protection factor) ([4]; quotient of the MPDs of protected and unprotected skin, UV-A)
1 | Oc1ccccc1O [Catechol (1%), Catechol] | 40% | 60% | 90% |  |  |  | 
2 | O=c1c(O)c(-c2ccc(O)c(O)c2)oc2cc(O)cc(O)c12 [Quercetin, quercetin] | 30% | 50% | 80% | 0.20 millimol per liter | 0.16 millimol per liter | 14 Joule/cm^2 and 19 Joule/cm^2 | 1.8 and 2.4
